Calls of active or inactive are those of the source.
Tests used:
[1] = target: Sphingosine 1-phosphate receptor 1 (Homo sapiens, UniProt P21453); test: Fluorescence-based counterscreen assay for S1P4 agonists: Cell-based dose response high throughput screening assay to identify agonists of the Sphingosine 1-Phosphate Receptor 1 (S1P1). [Related pubchem assays (depositor defined):AID1509, AID1523, AID1801, AID463107, AID463118, AID463119, AID463122, AID463123, AID463129, AID463225, AID504400, AID504460]; format: functional
[2] = target: T1, Sphingosine 1-phosphate receptor 4 (Homo sapiens, UniProt O95977); test: Fluorescence dose response cell-based high throughput screening assay for agonists of the Sphingosine 1-Phosphate Receptor 4 (S1P4). [Related pubchem assays: 1509 (Primary screen.), 1523 (Confirmation screen in triplicates.)]; format: functional
T1 sequence (O95977 whole entry): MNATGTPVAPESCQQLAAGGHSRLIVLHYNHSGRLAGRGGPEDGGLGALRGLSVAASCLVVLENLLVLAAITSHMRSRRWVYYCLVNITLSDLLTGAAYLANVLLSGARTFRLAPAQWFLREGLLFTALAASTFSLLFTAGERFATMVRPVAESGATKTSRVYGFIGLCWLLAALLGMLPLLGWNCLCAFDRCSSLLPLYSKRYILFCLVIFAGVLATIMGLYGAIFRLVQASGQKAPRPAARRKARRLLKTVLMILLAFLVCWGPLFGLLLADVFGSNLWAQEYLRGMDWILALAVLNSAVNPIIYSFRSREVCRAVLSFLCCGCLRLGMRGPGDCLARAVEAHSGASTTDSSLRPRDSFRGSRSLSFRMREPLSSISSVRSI

CAAX prenyl protease 2 = target: T2, CAAX prenyl protease 2 (Saccharomyces cerevisiae S288c, UniProt Q03530); format: biochemical
T2 sequence (Q03530 whole entry): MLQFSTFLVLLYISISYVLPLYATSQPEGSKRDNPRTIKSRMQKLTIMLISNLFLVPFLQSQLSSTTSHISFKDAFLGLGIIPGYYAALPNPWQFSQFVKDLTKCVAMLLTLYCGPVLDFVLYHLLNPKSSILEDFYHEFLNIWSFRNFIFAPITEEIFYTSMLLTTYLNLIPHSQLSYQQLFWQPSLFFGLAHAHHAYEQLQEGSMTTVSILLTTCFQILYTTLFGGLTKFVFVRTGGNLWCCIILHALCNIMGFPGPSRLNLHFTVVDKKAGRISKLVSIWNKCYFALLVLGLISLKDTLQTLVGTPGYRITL

[3] = mammalian cell cytotoxicity, dose response, cytotoxicity control, plate reader, cherry-pick samples (AID 504397); format: functional, cell-based
[4] = target: T3, Orexin/Hypocretin receptor type 1 (Homo sapiens, UniProt O43613); test: Fluorescence-based cell-based high throughput dose response assay for antagonists of the orexin 1 receptor (OX1R; HCRTR1). [Related pubchem assays (depositor defined):AID434989, AID435008, AID463079, AID485270, AID492963, AID492964, AID492965, AID493232, AID504717, AID504718]; format: functional
CHO-K1 = test: Counterscreen for antagonists of the orexin 1 receptor (OX1R; HCRTR1): Homogeneous time resolved fluorescence (HTRF)-based cell-based dose response assay to identify antagonists of the parental CHO-K1 cell line. [Related pubchem assays (depositor defined):AID434989, AID435008, AID463079, AID485270, AID492963, AID492964, AID492965, AID493232, AID504699, AID504701]; format: functional; conditions: Cricetulus griseus;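 note: potency for inhibition of ATP-stimulated IP1 production as antagonists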
[5] = target: T3, Orexin/Hypocretin receptor type 1; test: Homogeneous Time Resolved Fluorescence (HTRF)-based cell-based high throughput dose response assay for antagonists of the orexin 1 receptor (OX1R; HCRTR1). [Related pubchem assays (depositor defined):AID434989, AID435008, AID463079, AID485270, AID492963, AID492964, AID492965, AID493232, AID504717, AID504718]; format: functional
[6] = Counterscreen for antagonists of the orexin 1 receptor (OX1R; HCRTR1): Fluorescence-based cell-based high throughput dose response assay to identify antagonists of the parental CHO cell line. [Related pubchem assays (depositor defined):AID434989, AID435008, AID463079, AID485270, AID492963, AID492964, AID492965, AID493232, AID504699, AID504701]; format: functional
[7] = target: T4, Probable nicotinate-nucleotide adenylyltransferase (Staphylococcus aureus (strain N315), UniProt P65502); format: functional, Staphylococcus aureus subsp. aureus N315;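 for IC50 Mean: confirmatory dose-response retesting of NadD inhibitor hits first found in an ultra-high-throughput screen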
Cannabinoid receptor 1 [8] = target: T5, Cannabinoid receptor 1 (Homo sapiens, UniProt P21554); test: SAR analysis of antagonists of the Cannabinoid Receptor 1 using an Image-Based Assay - Set 2. [Related pubchem assays (depositor defined):AID2013, AID2026]; format: functional
Cannabinoid receptor 1 [9] = target: T5, Cannabinoid receptor 1; test: SAR analysis of agonists of the Cannabinoid Receptor 1 using an Image-Based Assay - Set 2. [Related pubchem assays (depositor defined):AID2013, AID2026]; format: functional
[10] = target: T6, G-protein coupled receptor 55 (Homo sapiens, UniProt Q9Y2T6); test: GPR55 antagonist potency of analogs, SAR follow-up, imaging, U2OS, beta-arrestin-GFP, LPI agonist, set 2 (AID 2820); format: functional
[11] = target: T7, G-protein coupled receptor 35 (Homo sapiens, UniProt Q9HC97); test: SAR analysis of Agonists of the GPR35 Receptor using an Image-Based Assay - Set 2. [Related pubchem assays (depositor defined):AID2013, AID2026]; format: functional
[12] = target: T6, G-protein coupled receptor 55; test: GPR55 antagonists blocking LPI-driven arrestin recruitment, primary screen, imaging, U2OS, beta-arrestin-GFP, LPI agonist (AID 2013); format: functional;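 note: antagonist potency measured as reduced agonist-driven arrestin aggregation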
[13] = target: T4, Probable nicotinate-nucleotide adenylyltransferase; format: functional, Staphylococcus aureus subsp. aureus N315; conditions: read-out: IC50_Mean
[14] = target: T8, Calpain-2 catalytic subunit (Sus scrofa, UniProt P43367); test: pig calpain II inhibitor potency, dose response, biochemical, fluorogenic peptide substrate (AID 1420); format: functional
T8 sequence (P43367 whole entry): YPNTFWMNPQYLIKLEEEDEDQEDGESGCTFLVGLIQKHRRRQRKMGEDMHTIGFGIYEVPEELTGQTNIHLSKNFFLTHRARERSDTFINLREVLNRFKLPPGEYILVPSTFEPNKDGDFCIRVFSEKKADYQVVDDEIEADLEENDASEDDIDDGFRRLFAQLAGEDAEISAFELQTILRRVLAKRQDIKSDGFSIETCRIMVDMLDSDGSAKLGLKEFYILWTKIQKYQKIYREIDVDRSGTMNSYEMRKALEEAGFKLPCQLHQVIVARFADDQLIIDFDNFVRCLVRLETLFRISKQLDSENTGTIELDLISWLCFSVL

Cannabinoid receptor 2 [15] = target: T9, Cannabinoid receptor 2 (Homo sapiens, UniProt P34972); test: SAR analysis of antagonists of the Cannabinoid Receptor 2 using an Image-Based Assay. [Related pubchem assays (depositor defined):AID2013, AID2026]; format: functional
Cannabinoid receptor 2 [16] = target: T9, Cannabinoid receptor 2; test: SAR analysis of agonists of the Cannabinoid Receptor 2 using an Image-Based Assay. [Related pubchem assays (depositor defined):AID2013, AID2026]; format: functional
[17] = target: T7, G-protein coupled receptor 35; test: SAR analysis of Antagonists of the GPR35 Receptor using an Image-Based Assay - Set 3. [Related pubchem assays (depositor defined):AID2013, AID2026]; format: functional
[18] = target: T10, Tyrosine-protein phosphatase non-receptor type 7 (Homo sapiens, UniProt P35236); format: functional
T10 sequence (P35236 whole entry): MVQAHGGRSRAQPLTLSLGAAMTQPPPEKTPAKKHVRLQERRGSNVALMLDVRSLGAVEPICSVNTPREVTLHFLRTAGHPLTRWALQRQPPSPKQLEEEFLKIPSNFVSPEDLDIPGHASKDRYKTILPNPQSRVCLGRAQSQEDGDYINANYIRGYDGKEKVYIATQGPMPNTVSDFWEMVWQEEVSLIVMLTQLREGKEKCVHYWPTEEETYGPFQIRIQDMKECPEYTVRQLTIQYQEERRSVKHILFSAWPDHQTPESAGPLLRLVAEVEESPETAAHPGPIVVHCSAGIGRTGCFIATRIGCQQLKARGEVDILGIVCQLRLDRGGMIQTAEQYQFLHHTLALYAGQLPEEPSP

[19] = target: T11, Tyrosine-protein phosphatase non-receptor type 22 (Homo sapiens, UniProt Q9Y2R2); format: functional
T11 sequence (Q9Y2R2 whole entry): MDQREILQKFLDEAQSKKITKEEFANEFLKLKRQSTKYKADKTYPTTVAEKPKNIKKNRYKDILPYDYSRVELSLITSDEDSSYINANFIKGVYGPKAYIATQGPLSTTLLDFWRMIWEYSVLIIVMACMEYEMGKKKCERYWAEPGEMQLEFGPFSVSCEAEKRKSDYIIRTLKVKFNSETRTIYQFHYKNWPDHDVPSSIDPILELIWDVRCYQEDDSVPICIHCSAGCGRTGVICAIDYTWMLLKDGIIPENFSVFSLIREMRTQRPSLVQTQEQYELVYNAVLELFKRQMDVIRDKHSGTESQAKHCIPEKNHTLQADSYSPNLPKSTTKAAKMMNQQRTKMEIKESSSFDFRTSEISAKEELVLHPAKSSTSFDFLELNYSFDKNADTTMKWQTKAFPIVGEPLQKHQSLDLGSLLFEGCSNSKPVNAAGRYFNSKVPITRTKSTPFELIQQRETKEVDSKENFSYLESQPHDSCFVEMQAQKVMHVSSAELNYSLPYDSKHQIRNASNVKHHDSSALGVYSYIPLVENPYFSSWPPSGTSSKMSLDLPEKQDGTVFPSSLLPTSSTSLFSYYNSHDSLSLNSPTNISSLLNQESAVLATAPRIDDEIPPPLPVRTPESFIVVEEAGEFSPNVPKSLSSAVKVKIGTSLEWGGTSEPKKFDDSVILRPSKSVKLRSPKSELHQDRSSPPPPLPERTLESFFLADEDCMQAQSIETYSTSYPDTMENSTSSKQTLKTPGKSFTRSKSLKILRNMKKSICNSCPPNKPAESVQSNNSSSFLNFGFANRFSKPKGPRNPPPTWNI

[20] = target: T11, Tyrosine-protein phosphatase non-receptor type 22; format: functional; remark: listed apart in the source
[21] = target: T12, Dual specificity protein phosphatase 6 (Rattus norvegicus, UniProt Q64346); test: MKP-3 phosphatase inhibitors, primary screen, biochemical, rat enzyme, in vitro (AID 425)
T12 sequence (Q64346 whole entry): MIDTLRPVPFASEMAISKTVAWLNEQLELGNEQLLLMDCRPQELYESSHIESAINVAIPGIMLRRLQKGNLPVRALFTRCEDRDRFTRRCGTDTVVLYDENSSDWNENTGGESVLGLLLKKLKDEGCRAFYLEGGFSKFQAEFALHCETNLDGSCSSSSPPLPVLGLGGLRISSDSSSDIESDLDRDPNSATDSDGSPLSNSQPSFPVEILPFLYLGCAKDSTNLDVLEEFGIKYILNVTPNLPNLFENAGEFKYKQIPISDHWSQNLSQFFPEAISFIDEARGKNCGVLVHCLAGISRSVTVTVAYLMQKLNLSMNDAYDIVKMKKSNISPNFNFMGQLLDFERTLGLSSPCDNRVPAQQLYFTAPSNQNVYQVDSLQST

[22] = target: T13, Dual specificity protein phosphatase 3 (Homo sapiens, UniProt P51452); test: VHR1 phosphatase inhibitors, primary screen, biochemical, absorbance, uHTS (AID 1654)
[23] = target: T13, Dual specificity protein phosphatase 3; test: VHR1 phosphatase inhibitors, biochemical (AID 1878)
[24] = target: T14, Carboxy-terminal domain RNA polymerase II polypeptide A small phosphatase 1 (Homo sapiens, UniProt Q9GZU7); test: inhibitors of CTDSP1, concentration-response testing, biochemical assay, absorbance-based, actives from ultra-high-throughput screening (AID 540297); format: functional
T14 sequence (Q9GZU7 whole entry): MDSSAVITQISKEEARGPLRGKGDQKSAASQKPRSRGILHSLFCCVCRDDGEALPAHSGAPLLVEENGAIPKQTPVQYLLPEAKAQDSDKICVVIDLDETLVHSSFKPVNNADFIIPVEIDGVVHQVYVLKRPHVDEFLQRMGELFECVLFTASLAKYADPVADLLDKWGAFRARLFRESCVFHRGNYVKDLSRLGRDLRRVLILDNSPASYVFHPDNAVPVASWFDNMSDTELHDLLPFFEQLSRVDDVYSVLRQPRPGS

T3 sequence (O43613 whole entry): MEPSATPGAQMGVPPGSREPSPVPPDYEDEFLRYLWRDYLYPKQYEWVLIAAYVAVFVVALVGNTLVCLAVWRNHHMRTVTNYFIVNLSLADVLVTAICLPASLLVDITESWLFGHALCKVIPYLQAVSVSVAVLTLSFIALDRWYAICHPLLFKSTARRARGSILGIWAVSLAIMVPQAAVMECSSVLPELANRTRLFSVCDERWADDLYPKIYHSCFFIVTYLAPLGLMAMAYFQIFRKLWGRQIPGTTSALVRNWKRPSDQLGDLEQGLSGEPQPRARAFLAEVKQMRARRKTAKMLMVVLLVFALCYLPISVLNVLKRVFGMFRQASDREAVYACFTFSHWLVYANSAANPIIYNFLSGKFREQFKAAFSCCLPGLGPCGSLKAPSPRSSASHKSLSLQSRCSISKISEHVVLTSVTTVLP
T7 sequence (Q9HC97 whole entry): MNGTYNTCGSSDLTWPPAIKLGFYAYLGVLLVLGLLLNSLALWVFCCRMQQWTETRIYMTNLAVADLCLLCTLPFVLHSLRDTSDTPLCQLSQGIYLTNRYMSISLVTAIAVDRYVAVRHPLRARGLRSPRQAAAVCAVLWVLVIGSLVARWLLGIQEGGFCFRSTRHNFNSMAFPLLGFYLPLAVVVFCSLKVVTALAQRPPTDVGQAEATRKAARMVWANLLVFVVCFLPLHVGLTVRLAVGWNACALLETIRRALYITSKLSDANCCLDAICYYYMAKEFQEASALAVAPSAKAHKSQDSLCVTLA
T13 sequence (P51452 whole entry): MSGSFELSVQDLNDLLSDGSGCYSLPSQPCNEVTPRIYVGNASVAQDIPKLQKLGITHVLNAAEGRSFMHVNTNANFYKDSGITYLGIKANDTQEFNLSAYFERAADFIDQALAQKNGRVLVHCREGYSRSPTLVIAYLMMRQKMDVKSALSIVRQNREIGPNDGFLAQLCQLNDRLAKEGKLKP
T5 sequence (P21554 whole entry): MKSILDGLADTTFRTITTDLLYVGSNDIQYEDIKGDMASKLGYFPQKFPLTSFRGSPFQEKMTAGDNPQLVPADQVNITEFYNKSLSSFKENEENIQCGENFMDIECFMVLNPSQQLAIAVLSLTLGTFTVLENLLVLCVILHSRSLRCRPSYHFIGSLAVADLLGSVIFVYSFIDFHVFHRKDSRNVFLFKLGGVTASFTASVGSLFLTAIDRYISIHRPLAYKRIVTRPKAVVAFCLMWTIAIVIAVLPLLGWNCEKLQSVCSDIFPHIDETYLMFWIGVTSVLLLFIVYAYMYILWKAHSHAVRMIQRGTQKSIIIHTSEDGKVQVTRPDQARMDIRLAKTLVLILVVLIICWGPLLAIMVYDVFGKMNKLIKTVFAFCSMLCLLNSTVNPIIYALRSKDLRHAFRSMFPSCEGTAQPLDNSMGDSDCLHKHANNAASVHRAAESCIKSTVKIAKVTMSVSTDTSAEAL
T6 sequence (Q9Y2T6 whole entry): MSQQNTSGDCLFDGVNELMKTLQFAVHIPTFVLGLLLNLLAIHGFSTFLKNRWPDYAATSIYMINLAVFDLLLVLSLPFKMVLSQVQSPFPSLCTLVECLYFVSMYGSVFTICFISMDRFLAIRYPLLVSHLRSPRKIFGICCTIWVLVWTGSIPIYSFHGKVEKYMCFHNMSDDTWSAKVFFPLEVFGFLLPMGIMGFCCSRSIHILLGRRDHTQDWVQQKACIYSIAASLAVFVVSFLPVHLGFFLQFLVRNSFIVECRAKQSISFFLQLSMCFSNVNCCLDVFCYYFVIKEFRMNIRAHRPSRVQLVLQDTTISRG
T4 sequence (P65502 whole entry): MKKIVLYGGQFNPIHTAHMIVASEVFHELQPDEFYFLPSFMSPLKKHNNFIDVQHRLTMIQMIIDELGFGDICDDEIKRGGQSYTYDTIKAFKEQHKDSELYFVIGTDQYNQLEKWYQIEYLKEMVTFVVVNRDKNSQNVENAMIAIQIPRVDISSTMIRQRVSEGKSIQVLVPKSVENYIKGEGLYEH
T9 sequence (P34972 whole entry): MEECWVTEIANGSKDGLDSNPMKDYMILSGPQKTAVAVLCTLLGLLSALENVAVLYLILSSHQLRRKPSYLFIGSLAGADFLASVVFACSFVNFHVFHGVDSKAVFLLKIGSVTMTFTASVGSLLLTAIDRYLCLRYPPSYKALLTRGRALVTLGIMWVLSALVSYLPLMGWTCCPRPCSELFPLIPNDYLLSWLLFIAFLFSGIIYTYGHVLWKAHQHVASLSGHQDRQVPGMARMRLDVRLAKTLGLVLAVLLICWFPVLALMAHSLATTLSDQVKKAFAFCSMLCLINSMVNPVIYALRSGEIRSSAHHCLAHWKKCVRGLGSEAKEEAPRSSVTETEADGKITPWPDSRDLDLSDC
Chain of Sphingosine 1-phosphate receptor 1 (P21453 whole entry): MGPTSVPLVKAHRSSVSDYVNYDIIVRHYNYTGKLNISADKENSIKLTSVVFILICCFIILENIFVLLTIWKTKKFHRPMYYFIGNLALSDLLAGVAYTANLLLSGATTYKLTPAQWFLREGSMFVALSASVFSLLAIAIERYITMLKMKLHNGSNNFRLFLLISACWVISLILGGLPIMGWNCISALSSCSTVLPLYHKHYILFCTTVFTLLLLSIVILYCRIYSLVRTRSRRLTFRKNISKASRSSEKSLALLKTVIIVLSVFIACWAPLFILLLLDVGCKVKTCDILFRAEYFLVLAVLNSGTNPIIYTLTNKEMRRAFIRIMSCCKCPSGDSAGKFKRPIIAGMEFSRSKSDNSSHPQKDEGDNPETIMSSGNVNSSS

SMILES: Cc1ccc2nc3c(cc(C#N)c(=O)n3-c3nccs3)c(=O)n2c1
- EC50 [1]: 10.6 µM (inactive)
- EC50 [2]: 3.72 µM (active)

SMILES: Nc1nnnn1/N=C/c1cccc(OCc2ccccc2Cl)c1
- AC50 (CAAX prenyl protease 2): 2.78 µM (active)
- AC50 [3]: > 350 µM (inactive)

SMILES: CC(=O)NC(N=C(S)Nc1ccc(N=Nc2ccccc2)cc1)C(Cl)(Cl)Cl (stereo unspecified)
- IC50 [4]: 6.68 µM (active)
- IC50 (CHO-K1): > 66.2 µM (inactive)
- IC50 [5]: 42.3 µM (inactive)
- IC50 [6]: > 5.53 µM (active)

SMILES: Cc1cc(C)c2nc(-c3cccnc3)cc(C(=O)Nc3ccc(S(=O)(=O)Nc4onc(C)c4C)cc3)c2c1
- IC50 [7]: 3.76 µM (active)
- IC50 (Cannabinoid receptor 1 [8]): > 32 µM (inactive)
- EC50 (Cannabinoid receptor 1 [9]): > 32 µM (inactive)
- IC50 [10]: 0.457 µM (active)
- EC50 [11]: > 32 µM (inactive)
- IC50 [12]: 1.55 µM (active)
- IC50 [13]: 12.5 µM (active)
- IC50 [14]: > 50 µM (not active)
- IC50 (Cannabinoid receptor 2 [15]): > 32 µM (inactive)
- EC50 (Cannabinoid receptor 2 [16]): > 32 µM (inactive)
- IC50 [17]: > 32 µM (inactive)

SMILES: CC1=NN(C(=O)c2ccc(Cn3ccc([N+](=O)[O-])n3)cc2)C(O)(C(F)(F)F)C1 (stereo unspecified)
- IC50 [18]: > 79.4 µM (inactive)
- IC50 [19]: > 79.4 µM (inactive)
- IC50 [20]: > 79.4 µM (inactive)

SMILES: CN1C(=O)/C(=C2\SC(=S)N(CCCCCC(=O)O)C2=O)c2ccccc21
- IC50 [21]: > 158 µM (not active)
- IC50 [22]: 5.97 µM (active)
- IC50 [23]: 2.4 µM (active)
- IC50 [24]: 0.836 µM (active)
